In PMC10812557, “Progressive Design of a Ranatuerin-2 Peptide from Amolops wuyiensis: Enhancement of Bioactivity and In Vivo Efficacy” (Antibiotics, 2023):
Values joined by “and” are separate entries in the source; they are usually repeats but may differ in a detail not shown here. Equal values may be shown once. Read-outs that look alike come from different tables or passages of the source. Peptide text beside a SMILES is read from it.

Assays:
[1] = tested on: MRSA (NCTC 12493); experiment: microbe, parasite or virus in culture; assay type: cell-based
Description: (§1) The MIC and MBC assays were used to assess the inhibitory activities of all 5 analogues of R2AW on the growth of planktonic microorganisms. The MIC is the lowest concentration that prevents the viable growth of bacteria. The MBC is the lowest concentration that results in bacterial death. Six microorganisms were used to detect the antimicrobial activity of peptides, including Gram-positive bacteria S. aureus (NCTC 10788), MRSA (NCTC 12493), Enterococcus faecalis (E. faecalis) (NCTC 12697), Gram-negative bacteria E. coli […], Klebsiella pneumoniae (K. pneumoniae) (ATCC 43816), and Pseudomonas aeruginosa (P. aeruginosa) (ATCC 9027). According to the assay described previously, the microorganisms were inoculated at 37 °C overnight and diluted to 5 × 10^5 CFU/mL after reaching the logarithmic growth period. The peptide stock solution at the concentration of 512 × 10^2 μM was prepared and diluted to 100 μM by a 2-fold dilution. One μL of each concentration of peptide solution was incubated with 99 μL of bacterial subculture in the 96-well plate for 18 h at 37 °C. The absorbance was determined at a wavelength of 550 nm using a Synergy HT plate reader (Bio Tek, Washington, DC, USA). […] As for those wells that were clearly visible, 20 μL of the solution was dropped onto the Mueller Hinton agar (MHA) dish and then incubated at 37 °C overnight. The lowest concentration with no colony growth was determined as the MBC.

[2] = tested on: E. faecium (NTCC 12697); experiment: microbe, parasite or virus in culture; assay type: cell-based
Description: as §1

[3] = tested on: S. aureus (NCTC 10788); experiment: microbe, parasite or virus in culture; assay type: cell-based
Description: as §1

[4] = tested on: S. aureus (NCTC 10788); experiment: Time–killing assay; assay type: cell-based, Staphylococcus aureus; settings: control antibiotic, 3 h incubation
Experimental: (§2) S. aureus (NCTC 10788), E. coli (ATCC 8739), MRSA (NCTC 12493), and P. aeruginosa (ATCC 9027) were used in this assay. Treatments of 2 × MIC, 1 × MIC, and 0.5 × MIC of [Lys^4,19, Leu^20]R2AW(1-22)-NH2 were prepared and mixed with 198 μL of diluted bacteria (5 × 10^5 CFU/mL). At each time point (0, 10, 20, 30, 60, 90, 120, and 180 min), 10 μL of peptide and bacteria mixture was dropped onto the MHA plate. After overnight incubation, the number of bacterial colonies was calculated. The CFU/mL could be calculated using the formula CFU/mL = (Number of colonies × dilution factor)/volume of culture.

[5] = tested on: MRSA (NCTC 12493); experiment: Time–killing assay; assay type: cell-based, methicillin-resistant Staphylococcus aureus; settings: control antibiotic, 3 h incubation
Experimental: as §2

[6] = tested on: E. coli (ATCC 8739); assay type: cell-based
Description: as §1

[7] = tested on: P. aeruginosa (ATCC 9027); assay type: cell-based
Description: as §1

[8] = tested on: K. pneumoniae (ATCC 43816); assay type: cell-based
Description: as §1

[9] = tested on: P. aeruginosa (ATCC 9027); experiment: Time–killing assay; assay type: cell-based, Pseudomonas aeruginosa; settings: peptide control
Experimental: as §2

[10] = tested on: E. coli (ATCC 8739); experiment: Time–killing assay; assay type: cell-based, Escherichia coli; settings: peptide control
Experimental: as §2

[11] = tested on: five human cancer cell lines; assay type: cell-based; settings: 24 h
Experimental: (§3) Five human cancer cell lines of non-small-cell lung cancer H838, human prostate carcinoma PC-3, human neuronal glioblastoma U251MG, human breast cancer cell MCF-7, and colorectal carcinoma HCT116 were used to detect the antiproliferative abilities of R2AW and its five analogues. According to the procedures in a previous article, cells (8000 cells/well) were seeded into the 96-well tissue culture plates and incubated at 37 °C with 5% CO2 overnight. The solutions of R2AW and its analogues at concentrations of 10^−4 M to 10^−9 M were prepared in the serum-free medium. Next, cells in each well were treated with 100 μL of each peptide solution for 24 h. Subsequently, 10 μL of 5 mg/mL MTT (3-(4, 5-Dimethylthiazol-2-yl-)-2, 5-Diphehyltetrazolium Bromide) was added to each well followed by 37 °C incubation for 2 h. After that, the liquid in each well was removed and 100 μL of DMSO was added to dissolve the purple formazan. The plate was placed on a shaking incubator for 10 min, and the absorbance was detected at 550 nm using a Synergy HT plate reader (Biotech, Minneapolis, MN, USA).

[12] = tested on: MCF-7; assay type: cell-based, human; settings: 24 h
Experimental: as §3

[13] = tested on: H838; assay type: cell-based, human; settings: 24 h
Experimental: as §3

[14] = tested on: U251MG; assay type: cell-based, human; settings: 24 h
Experimental: as §3

[15] = tested on: PC-3; assay type: cell-based, human; settings: 24 h
Experimental: as §3

[16] = tested on: HCT116; assay type: cell-based, human; settings: 24 h
Experimental: as §3

[17] = tested on: S. aureus (NCTC 10788); assay type: cell-based, Staphylococcus aureus
Experimental: (§4) As a previous study described in detail, the ability of R2AW and its analogues to inhibit and eradicate the formation of biofilm was investigated. The MBIC is the lowest concentration which inhibits the formation of biofilm. The MBEC is the minimum concentration that eradicates biofilm. Six bacterial strains were used, as described above. Briefly, the bacteria were cultured and then diluted to 5 × 10^5 CFU/mL. In MBIC assays, 1 μL of each concentration of R2AW and its analogues (ranging from 512 × 10^2 μM to 100 μM) was mixed with 99 μL of diluted bacterial suspension in a 96-well plate for 16-20 h at 37 °C. As for MBEC assays, 100 μL of cultured bacteria were seeded in a 96-well plate and incubated on the shaking incubator at 37 °C overnight for biofilm formation. Subsequently, each well was rinsed twice with 100 μL sterile PBS to remove planktonic cells, and then replaced with 100 μL of each concentration (ranging from 512 μM to 1 μM) of peptides. After 24 h incubation, the biofilm was washed twice with 100 μL of PBS and fixed with methanol. Next, the same volume of 0.1% crystal violet solution (Sigma-Aldrich, Gillingham, UK) was added to each well to stain the biofilm. After that, 100 μL of 30% of acetic acid (Sigma-Aldrich, Gillingham, UK) was transferred to each well for dissolution. The solutions were transferred into a new 96-well plate and the absorbances of wells was monitored using a Synergy HT plate reader set to 595 nm.

[18] = tested on: MRSA (NCTC 12493); assay type: cell-based, methicillin-resistant Staphylococcus aureus; settings: NCTC 12493
Experimental: as §4

[19] = tested on: E. faecium (NTCC 12697); assay type: cell-based
Experimental: as §4

[20] = tested on: K. pneumoniae (ATCC 43816); assay type: cell-based, Klebsiella pneumoniae
Experimental: as §4

[21] = tested on: E. coli (ATCC 8739); assay type: cell-based, Escherichia coli
Experimental: as §4

[22] = tested on: P. aeruginosa (ATCC 9027); assay type: cell-based, Pseudomonas aeruginosa
Experimental: as §4

[23] = tested on: Galleria mellonella larvae; experiment: Toxicity in waxworms with no MRSA treatment; assay type: in vivo; settings: 10 mg/kg
[24] = Staphylococcus aureus, NCTC10788

Compound: CN[C@H](CC(C)C)C(=O)N[C@H]1C(=O)N[C@@H](CC(N)=O)C(=O)N[C@H]2C(=O)N[C@H]3C(=O)N[C@H](C(=O)N[C@H](C(=O)O)c4cc(O)cc(O)c4-c4cc3ccc4O)[C@H](O)c3ccc(c(Cl)c3)Oc3cc2cc(c3O[C@@H]2O[C@H](CO)[C@@H](O)[C@H](O)[C@H]2O[C@H]2C[C@](C)(N)[C@H](O)[C@H](C)O2)Oc2ccc(cc2Cl)[C@H]1O [Vancomycin, reference compound]
- MBC ([1]; Staphylococcus aureus): 0.7 µg/mL and 0.5 µM
- MIC ([1]; Staphylococcus aureus): 0.7 µg/mL and 0.5 µM
- MBC ([2]; Enterococcus faecium): > 92.7 µg/mL and > 64 µM
- MIC ([2]; Enterococcus faecium): 0.7 µg/mL and 0.5 µM
- MBC [3, 24]: 0.7 µg/mL and 0.5 µM
- MIC [3, 24]: 0.7 µg/mL and 0.5 µM
- killing effect in time–killing curve [4]: could only inhibit the growth of bacteria
- killing effect in time–killing curve [5]: could only inhibit the growth of bacteria

Compound: Colistin [reference compound]
- MBC ([6]; E. coli (ATCC 8739)): 0.3 mg/L and 0.25 µM
- MIC ([6]; E. coli (ATCC 8739)): 0.1 mg/L and 0.125 µM
- MBC ([7]; P. aeruginosa (ATCC 9027)): 2.3 mg/L and 2 µM
- MIC ([7]; P. aeruginosa (ATCC 9027)): 1.2 mg/L and 1 µM
- MBC ([8]; K. pneumoniae (ATCC 43816)): 18.5 mg/L and 16 µM
- MIC ([8]; K. pneumoniae (ATCC 43816)): 18.5 mg/L and 16 µM
- killing effect in time–killing curve [9]: rapid bacterial killing effect
- killing effect in time–killing curve [10]: rapid bacterial killing effect

Compound: CSCC[C@H](NC(=O)[C@H](Cc1ccccc1)NC(=O)CN)C(=O)N[C@@H](CCCCN)C(=O)N[C@H](C(=O)N[C@@H](C)C(=O)N[C@@H](CCCCN)C(=O)N[C@@H](CC(N)=O)C(=O)N[C@H](C(=O)N[C@@H](C)C(=O)N[C@@H](CCCCN)C(=O)N[C@@H](CC(N)=O)C(=O)N[C@H](C(=O)N[C@@H](C)C(=O)N[C@@H](C)C(=O)N[C@H](C(=O)N[C@@H](CC(C)C)C(=O)N[C@@H](CC(C)C)C(=O)N[C@@H](CCCCN)C(=O)N[C@@H](CC(C)C)C(=O)N[C@@H](CC(C)C)C(=O)N[C@@H](CCCCN)C(N)=O)[C@@H](C)O)C(C)C)C(C)C)[C@@H](C)O [[Lys^4,19, Leu^20]R2AW(1-22)-NH2] (H-GFMKTAKNVAKNVAATLLKLLK-NH2)
- MBC ([1]; MRSA (NCTC 12493)): 4.7 mg/L
- MIC ([1]; MRSA (NCTC 12493)): 4.7 mg/L
- MBC ([2]; NTCC 12697, 18 h): 18.9 mg/L
- MIC ([2]; NTCC 12697, 18 h): 9.4 mg/L
- MBC ([3]; NCTC 10788, 18 h): 4.7 mg/L
- MIC ([3]; NCTC 10788, 18 h): 4.7 mg/L
- IC50 [11]: 3.67 to 12 µM
- IC50 [12]: 10.6 µM
- IC50 [13]: 7.83 µM
- IC50 [14]: 12.4 µM
- IC50 [15]: 3.67 µM
- IC50 [16]: 9.28 µM
- MBEC [17]: 256 µM
- MBIC [17]: 4 µM
- MBC ([6]; ATCC 8739, 18 h): 9.4 mg/L
- MIC ([6]; ATCC 8739, 18 h): 4.7 mg/L
- MBC ([7]; ATCC 9027, 18 h): 37.7 mg/L
- MIC ([7]; ATCC 9027, 18 h): 18.9 mg/L
- MBC ([8]; ATCC 43816, 18 h): 18.9 mg/L
- MIC ([8]; ATCC 43816, 18 h): 9.4 mg/L
- MBEC [18]: > 512 µM
- MBIC [18]: 4 µM
- MBEC [19]: > 512 µM
- MBIC [19]: 8 µM
- MBEC [20]: 256 µM
- MBIC [20]: 8 µM
- MBEC [21]: 256 µM
- MBIC [21]: 4 µM
- MBEC [22]: 512 µM
- MBIC [22]: 16 µM
- death of larvae with no MRSA treatment [23]: no death
